Test results published in ChEMBL document CHEMBL5661943, “ASAP - In vitro antiviral effect” (2024).

Columns and labels:
dengue virus type 2 [1] = assay: Functional immunofluorescence assay to measure dose dependent changes in antiviral-drug inhibitory efficacy against Dengue virus type 2 Thailand/16681/84 in Vero E6/TMPRSS2 cells (cotreated with P-gp inhibitor, Elacridar). Cells are treated with antiviral candidates that are serially diluted, following infection, cells are fixed. EC50 is reported via analysis of immunofluorescence staining. The assay has been performed by Icahn School of Medicine at Mount Sinai.; format: organism-based, Chlorocebus sabaeus, VeroE6/TMPRSS2; conditions: Baseline response 0 %, Maximum response 100 %, P-gp concentration 2 uM, P-gp inhibitor Elacidar
dengue virus type 2 [2] = assay: Functional assay to measure dose dependent changes in antiviral-drug inhibitory efficacy against Dengue virus type 2 New Guinea C in Vero E6 miRFP670 cells (cotreated with P-gp inhibitor, CP100356). Cells are treated with antiviral candidates that are serially diluted, following infection, cells are fixed. EC50 is reported via analysis of fluorescence intensity using high-content imager. The …; format: organism-based, Chlorocebus sabaeus, Vero C1008; conditions: Baseline response 0 %, Maximum response 100 %, P-gp concentration 500 nM, P-gp inhibitor CP100356
Zika virus [3] = assay: Functional CPE-based assay to measure dose dependent changes in antiviral-drug inhibitory efficacy against Zika virus MR766 in Vero E6 miRFP670 cells. Cells are treated with antiviral candidates that are serially diluted. EC50 is reported via analysis of MTS assay as a readout of CPE. The assay has been performed by KU Leuven.; format: organism-based, Chlorocebus sabaeus, Vero C1008; conditions: for EC90: Baseline response 0 %, Maximum response 100 %
Zika virus [4] = assay: EC50 is reported via analysis of immunofluorescence staining. The assay has been performed by Icahn School of Medicine at Mount Sinai.; format: functional, organism-based, Chlorocebus sabaeus, VeroE6/TMPRSS2; conditions: Baseline response 0 %, P-gp concentration 2 uM, P-gp inhibitor Elacidar
Zika virus [5] = assay: Functional CPE-based assay to measure dose dependent changes in antiviral-drug inhibitory efficacy against Zika virus MR766 in Vero E6 miRFP670 cells (cotreated with P-gp inhibitor, CP100356). Cells are treated with antiviral candidates that are serially diluted. EC50 is reported via analysis of MTS assay as a readout of CPE. The assay has been performed by KU Leuven.; format: organism-based, Chlorocebus sabaeus, Vero C1008; conditions: Baseline response 0 %, Maximum response 100 %, P-gp concentration 500 nM, P-gp inhibitor CP100356

SMILES: C#C[C@@]1(O)[C@H](O)[C@@H](CO)O[C@H]1n1ccc2c(N)ncnc21
- EC90 (dengue virus type 2 [1]; EC90 CI (lower) 0.185 uM, EC90 CI (upper) 0.987 uM, Hill slope -1.843, Maximum measured 114.823 %, Minimum measured 1.4 %, R squared 0.854): 4.64 µM
- EC90 (dengue virus type 2 [1]; EC90 CI (lower) […] uM, EC90 CI (upper) 0.029 uM, Hill slope -0.795, Maximum measured 131.547 %, Minimum measured 0.898 %, R squared 0.782): 1.45 µM
- EC90 (dengue virus type 2 [1]; EC90 CI (lower) […] uM, EC90 CI (upper) 0.107 uM, Hill slope -1.582, Maximum measured 108.655 %, Minimum measured 1.401 %, R squared 0.84): 0.595 µM
- EC90 (dengue virus type 2 [1]; EC90 CI (lower) […] uM, EC90 CI (upper) 0.213 uM, Hill slope -0.879, Maximum measured 109.405 %, Minimum measured 0.502 %, R squared 0.793): 8.04 µM
- EC90 (dengue virus type 2 [2]; EC90 CI (lower) 0.063 uM, EC90 CI (upper) 0.198 uM, Hill slope -1.33, Maximum measured 59.85 %, Minimum measured 0.021 %, R squared 0.933): 3050 nM
- EC90 (dengue virus type 2 [2]; EC90 CI (lower) 0.096 uM, EC90 CI (upper) 0.332 uM, Hill slope -1.394, Maximum measured 69.235 %, Minimum measured 0.073 %, R squared 0.818): 4170 nM
- EC90 (dengue virus type 2 [2]; EC90 CI (lower) 0.135 uM, EC90 CI (upper) 0.222 uM, Hill slope -1.408, Maximum measured 67.754 %, Minimum measured 0.12 %, R squared 0.962): 3930 nM
- EC90 (dengue virus type 2 [2]; EC90 CI (lower) 0.182 uM, EC90 CI (upper) 0.848 uM, Hill slope -1.407, Maximum measured 79.293 %, Minimum measured 0.097 %, R squared 0.879): 8930 nM
- EC90 (dengue virus type 2 [2]; EC90 CI (lower) 0.301 uM, EC90 CI (upper) 0.481 uM, Hill slope -1.99, Maximum measured 82.418 %, Minimum measured 0.182 %, R squared 0.957): 3460 nM
- EC90 (dengue virus type 2 [2]; EC90 CI (lower) 0.335 uM, EC90 CI (upper) 2.73 uM, Hill slope -2.159, Maximum measured 105.079 %, Minimum measured 6.932 %, R squared 0.477): 7320 nM
- EC90 (dengue virus type 2 [2]; EC90 CI (lower) 0.344 uM, EC90 CI (upper) 0.572 uM, Hill slope -2.092, Maximum measured 82.86 %, Minimum measured 0.014 %, R squared 0.949): 3620 nM
- EC90 (dengue virus type 2 [2]; EC90 CI (lower) 0.345 uM, EC90 CI (upper) 0.574 uM, Hill slope -1.668, Maximum measured 91.855 %, Minimum measured 0.191 %, R squared 0.984): 6210 nM
- EC90 (dengue virus type 2 [2]; EC90 CI (lower) 0.345 uM, EC90 CI (upper) 1.174 uM, Hill slope -1.957, Maximum measured 94.468 %, Minimum measured 0.047 %, R squared 0.91): 6020 nM
- EC90 (dengue virus type 2 [2]; EC90 CI (lower) 0.37 uM, EC90 CI (upper) 0.571 uM, Hill slope -1.792, Maximum measured 85.803 %, Minimum measured 0.04 %, R squared 0.97): 5340 nM
- EC90 (dengue virus type 2 [2]; EC90 CI (lower) 0.614 uM, EC90 CI (upper) 2.492 uM, Hill slope -4.433, Maximum measured 159.506 %, Minimum measured 0.037 %, R squared 0.838): 3330 nM
- EC90 (dengue virus type 2 [2]; EC90 CI (lower) 0.95 uM, EC90 CI (upper) 1.728 uM, Hill slope -2.215, Maximum measured 94.435 %, Minimum measured 0.459 %, R squared 0.976): 9320 nM
- EC90 (dengue virus type 2 [2]; EC90 CI (lower) 1.094 uM, EC90 CI (upper) 1.586 uM, Hill slope -2.299, Maximum measured 103.071 %, Minimum measured 0.093 %, R squared 0.991): 8910 nM
- EC90 (dengue virus type 2 [2]; EC90 CI (lower) 1.321 uM, EC90 CI (upper) 1.732 uM, Hill slope -3.141, Maximum measured 106.546 %, Minimum measured 0.058 %, R squared 0.995): 6130 nM
- EC90 (dengue virus type 2 [2]; EC90 CI (lower) 1.689 uM, EC90 CI (upper) 2.244 uM, Hill slope -3.785, Maximum measured 107.412 %, Minimum measured 0.007 %, R squared 0.985): 6210 nM
- EC90 (dengue virus type 2 [2]; EC90 CI (lower) […], EC90 CI (upper) 1.65 uM, Hill slope -1.956, Maximum measured 86.89 %, Minimum measured 0.152 %, R squared 0.926): 9090 nM
- EC90 (Zika virus [3]; EC90 CI (lower) 0.609 uM, EC90 CI (upper) 2.047 uM, Hill slope 2.369, Maximum measured 114.788 %, Minimum measured 45.711 %, R squared 0.779): 1120 nM
- EC90 (Zika virus [3]; EC90 CI (lower) 0.671 uM, EC90 CI (upper) 2.798 uM, Hill slope 1.934, Maximum measured 102.059 %, Minimum measured 46.421 %, R squared 0.63): 1370 nM
- EC90 (Zika virus [3]; EC90 CI (lower) 0.837 uM, EC90 CI (upper) 2.594 uM, Hill slope 2.016, Maximum measured 108.843 %, Minimum measured 40.384 %, R squared 0.792): 1470 nM
- EC90 (Zika virus [3]; EC90 CI (lower) 0.846 uM, EC90 CI (upper) 2.023 uM, Hill slope 2.239, Maximum measured 110.829 %, Minimum measured 40.755 %, R squared 0.884): 1310 nM
- EC90 (Zika virus [3]; EC90 CI (lower) 0.889 uM, EC90 CI (upper) 2.697 uM, Hill slope 2.299, Maximum measured 106.469 %, Minimum measured 29.185 %, R squared 0.791): 1550 nM
- EC90 (Zika virus [3]; EC90 CI (lower) 1.189 uM, EC90 CI (upper) 2.428 uM, Hill slope 2.067, Maximum measured 109.57 %, Minimum measured 34.796 %, R squared 0.858): 1700 nM
- EC90 (Zika virus [3]; EC90 CI (lower) 1.447 uM, EC90 CI (upper) 5.92 uM, Hill slope 1.376, Maximum measured 98.736 %, Minimum measured 36.6 %, R squared 0.773): 2930 nM
- EC90 (Zika virus [3]; EC90 CI (lower) 2.603 uM, EC90 CI (upper) 13.676 uM, Hill slope 1.372, Maximum measured 98.49 %, Minimum measured 18.919 %, R squared 0.79): 5970 nM
- EC50 (Zika virus [3]; vero c1008): 587 nM [middle of 8 runs]
- EC90 (Zika virus [4]; EC90 CI (lower) 0.001 uM, EC90 CI (upper) 0.006 uM, Hill slope -0.989, Maximum measured 96.238 %, Maximum response 100 %, Minimum measured 0.519 %, R squared 0.897): 224 nM
- EC90 (Zika virus [4]; EC90 CI (lower) 0.002 uM, EC90 CI (upper) 0.011 uM, Hill slope -0.683, Maximum measured 98.748 %, Maximum response 100 %, Minimum measured 0.794 %, R squared 0.927): 2880 nM
- EC90 (Zika virus [4]; EC90 CI (lower) 0.002 uM, EC90 CI (upper) 0.016 uM, Hill slope -0.839, Maximum measured 81.893 %, Maximum response 100 %, Minimum measured 1.248 %, R squared 0.884): 1180 nM
- EC90 (Zika virus [4]; EC90 CI (lower) 0.007 uM, EC90 CI (upper) 0.18 uM, Hill slope -1.662, Maximum measured 169.951 %, Maximum response 100 %, Minimum measured 5.93 %, R squared 0.731): 510 nM
- EC90 (Zika virus [4]; EC90 CI (lower) 0.03 uM, EC90 CI (upper) 0.119 uM, Hill slope -3.091, Maximum measured 117.52 %, Maximum response 100 %, Minimum measured 1.1 %, R squared 0.948): 247 nM
- EC90 (Zika virus [4]; EC90 CI (lower) 0.051 uM, EC90 CI (upper) 0.519 uM, Hill slope -4.939, Maximum measured 48.685 %, Maximum response 50 %, Minimum measured […], R squared 0.852): 395 nM
- EC90 (Zika virus [4]; EC90 CI (lower) 0.102 uM, EC90 CI (upper) 0.325 uM, Hill slope -1.64, Maximum measured 123.086 %, Maximum response 100 %, Minimum measured 10.677 %, R squared 0.94): 2650 nM
- EC90 (Zika virus [4]; Hill slope -0.492, Maximum measured 74.448 %, Maximum response 100 %, Minimum measured 1.207 %, R squared 0.744): > 10000 nM
- EC90 (Zika virus [5]; EC90 CI (lower) 0.21 uM, EC90 CI (upper) 1.971 uM, Hill slope 4.843, Maximum measured 127.846 %, Minimum measured 44.624 %, R squared 0.529): 644 nM
- EC90 (Zika virus [5]; EC90 CI (lower) 0.347 uM, EC90 CI (upper) 1.935 uM, Hill slope 4.005, Maximum measured 138.155 %, Minimum measured 32.327 %, R squared 0.565): 819 nM
- EC90 (Zika virus [5]; EC90 CI (lower) 0.485 uM, EC90 CI (upper) 1.678 uM, Hill slope 2.708, Maximum measured 115.594 %, Minimum measured 50.299 %, R squared 0.731): 902 nM
- EC90 (Zika virus [5]; EC90 CI (lower) 0.573 uM, EC90 CI (upper) 1.709 uM, Hill slope 2.773, Maximum measured 114.82 %, Minimum measured 43.135 %, R squared 0.56): 990 nM
- EC90 (Zika virus [5]; EC90 CI (lower) 0.644 uM, EC90 CI (upper) 1.624 uM, Hill slope 2.782, Maximum measured 120.433 %, Minimum measured 40.681 %, R squared 0.677): 1020 nM
- EC90 (Zika virus [5]; EC90 CI (lower) 0.736 uM, EC90 CI (upper) 2.012 uM, Hill slope 2.837, Maximum measured 119.107 %, Minimum measured 28.833 %, R squared 0.835): 1220 nM
- EC90 (Zika virus [5]; EC90 CI (lower) 0.778 uM, EC90 CI (upper) 1.421 uM, Hill slope 2.877, Maximum measured 117.074 %, Minimum measured 36.973 %, R squared 0.767): 1050 nM
- EC90 (Zika virus [5]; EC90 CI (lower) 1.744 uM, EC90 CI (upper) 2.505 uM, Hill slope 3.857, Maximum measured 108.608 %, Minimum measured 1.409 %, R squared 0.98): 2090 nM
- EC90 (Zika virus [5]; Hill slope -0.24, Maximum measured 59.299 %, Minimum measured 14.65 %, R squared 0.03): < 391 nM
